Data: publication PMC9644403, “L-type Amino Acid Transporter 1 Utilizing Ferulic Acid Derivatives Show Increased Drug Delivery in the Mouse Pancreas Along with Decreased Lipid Peroxidation and Prostaglandin Production” (Molecular Pharmaceutics, 2022)

Columns and labels:
human plasma = assay: Coagulation parameters (PT, INR, APTT, TT) in human plasma
Experimental: To assess the safety of the LAT1 derivatives in the human blood circulation system, the basic coagulation parameters, prothrombin time (PT), activated partial thromboplastin time (APTT), thrombin time (TT), and international normalized ratio (INR) were determined from human plasma in the presence of FA, D1, and D2. The parameters were studied using a coagulometer (CoagChrom-3003 Bio-Ksel, Grudziądz, Poland), with the previously described methods.[25],[31] The following reagents were used in the basic coagulation studies: Bio-Ksel System APTT reagent and calcium chloride, Bio-Ksel PT plus reagent (thromboplastin and solvent), and thrombin (3.0 UNIH/mL), (Bio-Ksel, Grudziądz, Poland). The experiments were performed using citrated human plasma. Control samples consisting of drug solvents [distilled water and methanol mixture (1:2 v/v)] were conducted. The methods were validated using normal plasma (Bio-Ksel, Grudziądz, Poland). Coefficients of variability (CV) were counted (n = 5): CV(PT) = 5.34%, CV(APTT) = 2.61%, CV(TT) = 1.82%. Following reference values for each test were applied: PT: 9.7–14.6 s; APTT: 26.7–40.0 s; and TT: 14.0–18.0 s for 3.0 UNIH/mL of thrombin.

[1] = test system: prostaglandin E2 (PGE2) production; assay: Inhibition of prostaglandin E2 production in tissues of LPS-induced mice; type: in vivo, mouse; details: LPS 250 μg/kg i.p., mean ± SD; for PGE2 in liver, preventative treatment / PGE2 in pancreas, preventative treatment: compound 25 μmol/kg i.p. 3 days and 120 min before sacrifice; for PGE2 in liver, curative treatment / PGE2 in pancreas, curative treatment: compound 25 μmol/kg i.p. last 2 days
Experimental: (§1) According to the results from previous in vitro([18]) efficacy and safety studies and in vivo pharmacokinetics, the efficacy of the FA and the more LAT1-specific derivative, D1 against oxidative stress and lipid peroxidation was evaluated by determining malondialdehyde (MDA) formation in mouse tissues. To induce oxidative stress, mice were administered 250 μg/kg of lipopolysaccharide (LPS) i.p. once per day for 3 consecutive days. On the 4th day, mice were anesthetized using a mixture of ketamine (140 mg/kg) and xylazine (8 mg/kg) and sacrificed by decapitation. Animals were divided into one of four treatment groups (n = 4 per group); (1) LPS only, (2) LPS with the FA or D1 (25 μmol/kg; i.p.) for 3 days and 120 min before the sacrifice on the 4th day (preventative efficacy), (3) LPS with the FA or D1 (25 μmol/kg; i.p.) only for the last 2 days (curative efficacy), or (4) control mice treated with 0.9% NaCl solution i.p. once per day for 3 days. After decapitation, the kidney, liver, and pancreas were rapidly collected, snap-frozen on dry ice, and stored at −80 °C until analyzed.
The ability of FA and D1 to inhibit prostaglandin E2 (PGE2) production in the mouse kidney, liver, and pancreas was evaluated after the exposure of mice to LPS. The tissue homogenate supernatants (n = 4), prepared as described above in MDA sample preparation (Chapter 2.7), were further diluted 1:5 with 80% MeOH (v/v) solution containing the deuterated internal standard, PGE2-d4 (Cayman Chemical Company, Ann Arbor, MI, USA). To improve the extraction of prostaglandins and precipitation of proteins, the diluted samples were incubated overnight in a freezer (−80 °C). Subsequently, samples were centrifuged at 16 000 × g for 20 min at 4 °C and the supernatants were collected for the LC–MS/MS analysis.
The LC–MS/MS analysis was carried out with a previously described method[30] using an Agilent 1290 Infinity LC System (Agilent Technologies, Waldbronn, Germany) and an Agilent 6495 triple quadrupole mass spectrometer with a heated electrospray ionization source (Agilent Technologies, Palo Alto, CA, USA). Data were collected using Agilent MassHunter Workstation software (version B.06.00) and processed with the Quantitative Analysis (B.07.00) software. The results were calculated as nmol of PGE2 per mg of tissue.

[2] = previous in vitro bioconversion studies; cited from earlier work
human erythrocytes = assay: Erythrocyte morphology, phase-contrast microscopy; type: cell-based; details: tested 25–100 μM
Experimental: (§2) To further evaluate the safety of derivatives in human blood, the effects of FA, D1, and D2 on hemolysis were studied using a previously described protocol.[31] Shortly, freshly collected erythrocytes were washed three times with 1 mL of 0.9% saline (Sigma-Aldrich, Germany). Subsequently, 2% RBC suspension was prepared by diluting 1 mL of erythrocytes in 50 mL of 0.9% saline. FA, D1, and D2 (1–100 μM) were incubated with the RBC suspension at 37 °C for 1 h. Additionally, negative controls containing 0.9% NaCl and positive controls with Triton X-100 (Polish Chemical Reagents, Poland) were studied. After incubation, the samples were centrifuged at 3 000 rpm for 10 min, and the absorbance values were measured from the collected supernatants at the wavelength of 550 nm. Samples with Triton X (positive control) represented 100% hemolysis. Results of the studies are presented as a percentage of released hemoglobin. The counted CV was 8.1% (n = 5). Additionally, the influence of FA and its derivatives (25–100 μM) on RBC morphology was studied using a phase contrast Opta-Tech inverted microscope. The morphology was analyzed using a dedicated OptaView 7 software (Opta-Tech, Warsaw, Poland).

[3] = test system: malondialdehyde (MDA) formation; assay: Inhibition of lipid peroxidation: MDA formation in tissues of LPS-induced mice; type: in vivo, mouse; details: LPS 250 μg/kg i.p. 3 days, mean ± SD; for MDA formation in pancreas, preventative treatment: compound 25 μmol/kg i.p. for 3 days and 120 min before sacrifice; for MDA formation in pancreas, curative treatment: compound 25 μmol/kg i.p. only for the last 2 days
Experimental: as §1
Pieces of snap-frozen tissues were homogenized 1:10 (w/v) in 50 mM TBS (pH 7.4) containing 0.01% butylated hydroxytoluene by sonicating samples in pulses for 5 s with a SoniPrep 150 Plus disintegrator (MSE Ltd., London, UK). The homogenates were then centrifuged at 10 000 × g for 20 min at 4 °C, and the supernatants were collected for the assays.
MDA was quantified by the derivatization reaction with thiobarbituric acid (TBA) (Sigma, St. Louis, MO, USA), with a previously described protocol.[30] The analysis was carried out with an Agilent 1290 Infinity II LC System (Agilent Technologies, Santa Clara, CA, USA) combined with an Agilent 1290 Infinity II Diode Array Detector. The results were calculated as μmol of formed MDA-TBA2 per mg of tissue.

[4] = RBC lysis assay (hemolysis); type: cell-based; details: 2% erythrocyte (RBC) suspension, human RBCs, 37 °C, Triton X = 100%, control 2.08 ± 0.15%, read-out: hemolysis rate
Experimental: as §2

LAT1 = test system: LAT1; parameters: method as in PMID 31814871, PMID 35011270; details: previous uptake mechanism studies; cited from earlier work

effect on APTT (human plasma; 100 μM) | concentration at which anisocytosis with formation of macrocytes was observed (human erythrocytes) [µM] | concentration at which few stomatocytes were detected (human erythrocytes) [µM] | concentration at which formation of echinocytes was observed (human erythrocytes) [µM] | Compound | PGE2 in liver, preventative treatment [1] [nmol/mg] | PGE2 in pancreas, preventative treatment [1] [nmol/mg] | PGE2 in liver, curative treatment [1] [nmol/mg] | PGE2 in pancreas, curative treatment [1] [nmol/mg] | release of FA in the mouse liver [2] | MDA formation in pancreas, preventative treatment [3] [µmol/mg] | MDA formation in pancreas, curative treatment [3] [µmol/mg] | hemolysis at 1 h, 100 µM [4] [%] | affinity toward LAT1 compared to the secondary transport mechanism (LAT1) | overall uptake speed compared to D1 (LAT1) [times] | effect on INR (human plasma) | prothrombin time (PT) (human plasma; 100 μM, control 13.2 ± 1.3 s) [s]
prolonged the APTT | 50 to 100 | 100 |  | COc1cc(C=CC(=O)NCc2cccc(CC(N)C(=O)O)c2)ccc1O (stereo not shown) [derivative 1] | 15.95 ± 9.61 | 24.51 ± 15.99 | 48.55 ± 14.50 | 23.51 ± 8.81 | neither D1 nor D2 released FA | 0.46 ± 0.47 | 0.44 ± 0.39 | 3.58 ± 0.69 |  |  |  | 
 |  |  | 50 to 100 | COc1cc(/C=C/C(=O)Nc2cccc(C[C@H](N)C(=O)O)c2)ccc1O [derivative 2] |  |  |  |  | neither D1 nor D2 released FA |  |  | 1.97 ± 1.25 | over 20 times | 1.5 |  | 
 |  |  |  | COc1cc(C=CC(=O)O)ccc1O [ferulic acid, 4-hydroxy-3-methoxycinnamic acid] | 25.41 ± 6.35 | 57.56 ± 51.63 | 37.07 ± 10.02 | 54.68 ± 22.02 |  | 0.94 ± 0.41 | 1.04 ± 0.29 | 2.38 ± 1.84 |  |  | increased INR | 15.5 ± 0.4
